Test results reported in ChEMBL document CHEMBL3217564, “The design and synthesis of 5- and 6-isoxazolylbenzimidazoles as selective inhibitors of the BET bromodomains” (Medchemcomm, 2013).

Tests used:
[1] = molecular target: T1, Bromodomain-containing protein 4 (Homo sapiens, UniProt O60885); test: Inhibition of BRD4 bromodomain-1 (unknown origin) by AlphaScreen assay
[2] = Inhibition of CBP (unknown origin) by AlphaScreen assay; set-up: species or system Homo sapiens
[3] = molecular target: T2, Transcription intermediary factor 1-alpha (Homo sapiens) (UniProt O15164); test: Binding affinity to TIF1alpha bromodomain (unknown origin) assessed as change in melting temperature at 10 uM by differential scanning fluorimetric analysis
T2 sequence (whole entry): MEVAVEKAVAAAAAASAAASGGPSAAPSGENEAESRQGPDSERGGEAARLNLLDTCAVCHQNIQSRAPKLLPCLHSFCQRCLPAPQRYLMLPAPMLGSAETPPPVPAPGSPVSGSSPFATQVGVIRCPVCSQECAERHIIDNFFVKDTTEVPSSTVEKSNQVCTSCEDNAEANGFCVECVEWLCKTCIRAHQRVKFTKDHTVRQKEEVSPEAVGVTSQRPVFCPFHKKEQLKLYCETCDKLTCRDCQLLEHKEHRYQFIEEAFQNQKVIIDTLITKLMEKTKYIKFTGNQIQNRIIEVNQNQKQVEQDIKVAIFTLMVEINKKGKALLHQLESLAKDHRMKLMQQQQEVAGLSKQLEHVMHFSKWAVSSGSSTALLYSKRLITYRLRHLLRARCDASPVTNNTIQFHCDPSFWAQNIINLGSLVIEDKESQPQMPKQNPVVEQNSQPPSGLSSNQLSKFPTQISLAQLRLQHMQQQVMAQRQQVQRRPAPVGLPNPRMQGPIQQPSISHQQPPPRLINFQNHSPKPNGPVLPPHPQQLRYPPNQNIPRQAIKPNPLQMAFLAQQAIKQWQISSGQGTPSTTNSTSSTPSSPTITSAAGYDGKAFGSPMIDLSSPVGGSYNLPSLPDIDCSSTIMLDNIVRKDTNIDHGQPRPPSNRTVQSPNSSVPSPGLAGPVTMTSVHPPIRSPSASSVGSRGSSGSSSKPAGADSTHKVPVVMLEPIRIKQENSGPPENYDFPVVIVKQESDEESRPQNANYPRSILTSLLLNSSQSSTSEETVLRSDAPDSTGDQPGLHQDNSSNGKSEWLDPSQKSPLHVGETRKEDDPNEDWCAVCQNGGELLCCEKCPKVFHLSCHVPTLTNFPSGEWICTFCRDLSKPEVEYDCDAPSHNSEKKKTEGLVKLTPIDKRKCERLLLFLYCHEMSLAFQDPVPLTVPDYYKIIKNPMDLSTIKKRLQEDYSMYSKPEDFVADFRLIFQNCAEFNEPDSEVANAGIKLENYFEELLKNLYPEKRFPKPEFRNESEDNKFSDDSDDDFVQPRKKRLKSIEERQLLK

[4] = molecular target: Transcription initiation factor TFIID subunit 1 (Homo sapiens) (UniProt P21675); test: Binding affinity to TAF1 bromodomain-2 (unknown origin) assessed as change in melting temperature at 10 uM by differential scanning fluorimetric analysis
Sequence of Transcription initiation factor TFIID subunit 1 (Homo sapiens) (P21675 whole entry): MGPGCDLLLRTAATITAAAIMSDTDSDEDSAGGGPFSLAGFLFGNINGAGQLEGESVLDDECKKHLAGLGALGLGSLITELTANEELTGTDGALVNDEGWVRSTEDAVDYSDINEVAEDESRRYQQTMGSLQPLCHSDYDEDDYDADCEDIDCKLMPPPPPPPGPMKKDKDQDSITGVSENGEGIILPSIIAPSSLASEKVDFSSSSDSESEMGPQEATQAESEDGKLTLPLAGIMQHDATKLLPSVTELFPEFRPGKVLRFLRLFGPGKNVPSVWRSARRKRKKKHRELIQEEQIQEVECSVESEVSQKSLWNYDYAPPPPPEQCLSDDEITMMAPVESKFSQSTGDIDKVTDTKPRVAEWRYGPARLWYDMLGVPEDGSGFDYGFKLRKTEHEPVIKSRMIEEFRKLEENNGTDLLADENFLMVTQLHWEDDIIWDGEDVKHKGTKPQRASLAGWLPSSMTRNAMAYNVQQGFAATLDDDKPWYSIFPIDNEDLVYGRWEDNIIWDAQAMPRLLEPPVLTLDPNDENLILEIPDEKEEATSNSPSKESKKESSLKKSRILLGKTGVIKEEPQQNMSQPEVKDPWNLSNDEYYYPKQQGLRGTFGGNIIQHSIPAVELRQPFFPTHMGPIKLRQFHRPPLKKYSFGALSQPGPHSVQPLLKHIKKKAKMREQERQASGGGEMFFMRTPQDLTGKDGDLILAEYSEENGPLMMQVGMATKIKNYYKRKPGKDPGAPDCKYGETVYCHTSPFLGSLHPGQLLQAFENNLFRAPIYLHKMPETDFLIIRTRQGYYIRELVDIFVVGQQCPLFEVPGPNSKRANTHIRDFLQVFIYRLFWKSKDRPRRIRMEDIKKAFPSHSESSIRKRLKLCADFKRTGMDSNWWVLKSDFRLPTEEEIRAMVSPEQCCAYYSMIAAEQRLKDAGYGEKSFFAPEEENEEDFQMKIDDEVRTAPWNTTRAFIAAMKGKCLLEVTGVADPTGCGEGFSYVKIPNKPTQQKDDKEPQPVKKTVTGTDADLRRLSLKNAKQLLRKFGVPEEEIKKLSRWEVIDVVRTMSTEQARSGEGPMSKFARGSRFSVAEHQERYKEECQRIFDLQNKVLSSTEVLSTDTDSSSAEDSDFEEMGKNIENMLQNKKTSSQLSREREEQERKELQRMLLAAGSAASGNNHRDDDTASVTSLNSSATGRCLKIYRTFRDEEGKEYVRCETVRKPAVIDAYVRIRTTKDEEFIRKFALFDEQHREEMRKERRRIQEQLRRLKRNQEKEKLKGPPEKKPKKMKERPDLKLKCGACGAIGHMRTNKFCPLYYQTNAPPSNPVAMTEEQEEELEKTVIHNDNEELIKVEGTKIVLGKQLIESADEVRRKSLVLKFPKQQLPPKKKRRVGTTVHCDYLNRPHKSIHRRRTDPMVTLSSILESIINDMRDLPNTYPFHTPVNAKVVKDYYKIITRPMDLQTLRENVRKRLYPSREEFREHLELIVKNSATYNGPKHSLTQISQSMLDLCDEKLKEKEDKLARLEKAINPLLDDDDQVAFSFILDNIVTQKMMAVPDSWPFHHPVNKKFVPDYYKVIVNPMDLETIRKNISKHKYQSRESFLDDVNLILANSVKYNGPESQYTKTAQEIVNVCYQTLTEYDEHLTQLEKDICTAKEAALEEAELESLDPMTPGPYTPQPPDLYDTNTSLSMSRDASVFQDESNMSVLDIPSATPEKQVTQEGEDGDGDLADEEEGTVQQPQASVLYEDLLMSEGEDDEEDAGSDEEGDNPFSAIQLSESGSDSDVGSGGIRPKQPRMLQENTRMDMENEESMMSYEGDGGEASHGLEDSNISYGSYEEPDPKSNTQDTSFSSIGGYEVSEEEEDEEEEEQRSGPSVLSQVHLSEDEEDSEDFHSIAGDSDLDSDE

[5] = molecular target: PH-interacting protein (Homo sapiens) (UniProt Q8WWQ0); test: Binding affinity to PHIP bromodomain-2 (unknown origin) assessed as change in melting temperature at 10 uM by differential scanning fluorimetric analysis
[6] = molecular target: Histone acetyltransferase KAT2B (Homo sapiens) (UniProt Q92831); test: Binding affinity to PCAF bromodomain (unknown origin) assessed as change in melting temperature at 10 uM by differential scanning fluorimetric analysis
Sequence of Histone acetyltransferase KAT2B (Homo sapiens) (Q92831 whole entry, looked up): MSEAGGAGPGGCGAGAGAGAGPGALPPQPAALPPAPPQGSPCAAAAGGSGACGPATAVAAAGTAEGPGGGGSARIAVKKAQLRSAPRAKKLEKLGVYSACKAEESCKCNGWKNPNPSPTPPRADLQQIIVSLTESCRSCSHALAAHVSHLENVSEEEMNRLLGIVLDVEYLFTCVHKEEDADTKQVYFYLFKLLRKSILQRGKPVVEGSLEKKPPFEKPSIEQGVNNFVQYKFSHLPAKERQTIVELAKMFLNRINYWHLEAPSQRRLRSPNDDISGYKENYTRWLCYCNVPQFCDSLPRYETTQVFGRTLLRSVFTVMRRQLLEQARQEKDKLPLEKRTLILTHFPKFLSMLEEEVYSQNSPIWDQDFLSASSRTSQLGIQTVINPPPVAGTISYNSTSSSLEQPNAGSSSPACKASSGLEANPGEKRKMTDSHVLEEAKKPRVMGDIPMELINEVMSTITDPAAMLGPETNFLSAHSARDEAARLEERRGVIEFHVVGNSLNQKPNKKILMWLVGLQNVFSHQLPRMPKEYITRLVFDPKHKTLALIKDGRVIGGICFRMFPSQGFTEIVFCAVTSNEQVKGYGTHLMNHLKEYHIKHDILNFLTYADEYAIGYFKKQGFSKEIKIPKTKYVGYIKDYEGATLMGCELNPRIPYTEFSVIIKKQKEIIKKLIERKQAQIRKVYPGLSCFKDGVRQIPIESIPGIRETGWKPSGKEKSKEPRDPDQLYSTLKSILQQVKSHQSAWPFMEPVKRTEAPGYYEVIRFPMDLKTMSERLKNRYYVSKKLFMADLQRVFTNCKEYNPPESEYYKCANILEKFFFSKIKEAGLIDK

[7] = molecular target: T3, Bromodomain-containing protein 9 (Homo sapiens) (UniProt Q9H8M2); test: Binding affinity to BRD9 bromodomain (unknown origin) assessed as change in melting temperature at 10 uM by differential scanning fluorimetric analysis
T3 sequence (whole entry): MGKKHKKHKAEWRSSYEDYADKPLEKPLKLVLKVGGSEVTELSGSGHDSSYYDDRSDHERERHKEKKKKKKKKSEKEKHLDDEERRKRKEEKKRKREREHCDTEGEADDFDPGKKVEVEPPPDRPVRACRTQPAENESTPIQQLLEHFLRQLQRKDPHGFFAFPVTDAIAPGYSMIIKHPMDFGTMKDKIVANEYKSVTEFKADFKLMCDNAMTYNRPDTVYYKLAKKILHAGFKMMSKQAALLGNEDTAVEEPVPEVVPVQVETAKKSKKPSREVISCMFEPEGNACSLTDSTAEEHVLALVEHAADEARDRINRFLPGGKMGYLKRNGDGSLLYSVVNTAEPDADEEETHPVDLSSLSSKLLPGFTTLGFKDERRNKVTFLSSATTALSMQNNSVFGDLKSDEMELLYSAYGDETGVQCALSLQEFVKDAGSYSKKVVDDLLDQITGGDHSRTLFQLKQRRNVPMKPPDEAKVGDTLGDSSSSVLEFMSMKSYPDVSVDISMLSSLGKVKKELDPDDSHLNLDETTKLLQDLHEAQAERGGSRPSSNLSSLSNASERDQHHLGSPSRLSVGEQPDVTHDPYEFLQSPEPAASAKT

[8] = molecular target: Protein polybromo-1 (Homo sapiens) (UniProt Q86U86); test: Binding affinity to PB1-5 bromodomain (unknown origin) assessed as change in melting temperature at 10 uM by differential scanning fluorimetric analysis
Sequence of Protein polybromo-1 (Homo sapiens) (Q86U86 whole entry, the tested form may be a part): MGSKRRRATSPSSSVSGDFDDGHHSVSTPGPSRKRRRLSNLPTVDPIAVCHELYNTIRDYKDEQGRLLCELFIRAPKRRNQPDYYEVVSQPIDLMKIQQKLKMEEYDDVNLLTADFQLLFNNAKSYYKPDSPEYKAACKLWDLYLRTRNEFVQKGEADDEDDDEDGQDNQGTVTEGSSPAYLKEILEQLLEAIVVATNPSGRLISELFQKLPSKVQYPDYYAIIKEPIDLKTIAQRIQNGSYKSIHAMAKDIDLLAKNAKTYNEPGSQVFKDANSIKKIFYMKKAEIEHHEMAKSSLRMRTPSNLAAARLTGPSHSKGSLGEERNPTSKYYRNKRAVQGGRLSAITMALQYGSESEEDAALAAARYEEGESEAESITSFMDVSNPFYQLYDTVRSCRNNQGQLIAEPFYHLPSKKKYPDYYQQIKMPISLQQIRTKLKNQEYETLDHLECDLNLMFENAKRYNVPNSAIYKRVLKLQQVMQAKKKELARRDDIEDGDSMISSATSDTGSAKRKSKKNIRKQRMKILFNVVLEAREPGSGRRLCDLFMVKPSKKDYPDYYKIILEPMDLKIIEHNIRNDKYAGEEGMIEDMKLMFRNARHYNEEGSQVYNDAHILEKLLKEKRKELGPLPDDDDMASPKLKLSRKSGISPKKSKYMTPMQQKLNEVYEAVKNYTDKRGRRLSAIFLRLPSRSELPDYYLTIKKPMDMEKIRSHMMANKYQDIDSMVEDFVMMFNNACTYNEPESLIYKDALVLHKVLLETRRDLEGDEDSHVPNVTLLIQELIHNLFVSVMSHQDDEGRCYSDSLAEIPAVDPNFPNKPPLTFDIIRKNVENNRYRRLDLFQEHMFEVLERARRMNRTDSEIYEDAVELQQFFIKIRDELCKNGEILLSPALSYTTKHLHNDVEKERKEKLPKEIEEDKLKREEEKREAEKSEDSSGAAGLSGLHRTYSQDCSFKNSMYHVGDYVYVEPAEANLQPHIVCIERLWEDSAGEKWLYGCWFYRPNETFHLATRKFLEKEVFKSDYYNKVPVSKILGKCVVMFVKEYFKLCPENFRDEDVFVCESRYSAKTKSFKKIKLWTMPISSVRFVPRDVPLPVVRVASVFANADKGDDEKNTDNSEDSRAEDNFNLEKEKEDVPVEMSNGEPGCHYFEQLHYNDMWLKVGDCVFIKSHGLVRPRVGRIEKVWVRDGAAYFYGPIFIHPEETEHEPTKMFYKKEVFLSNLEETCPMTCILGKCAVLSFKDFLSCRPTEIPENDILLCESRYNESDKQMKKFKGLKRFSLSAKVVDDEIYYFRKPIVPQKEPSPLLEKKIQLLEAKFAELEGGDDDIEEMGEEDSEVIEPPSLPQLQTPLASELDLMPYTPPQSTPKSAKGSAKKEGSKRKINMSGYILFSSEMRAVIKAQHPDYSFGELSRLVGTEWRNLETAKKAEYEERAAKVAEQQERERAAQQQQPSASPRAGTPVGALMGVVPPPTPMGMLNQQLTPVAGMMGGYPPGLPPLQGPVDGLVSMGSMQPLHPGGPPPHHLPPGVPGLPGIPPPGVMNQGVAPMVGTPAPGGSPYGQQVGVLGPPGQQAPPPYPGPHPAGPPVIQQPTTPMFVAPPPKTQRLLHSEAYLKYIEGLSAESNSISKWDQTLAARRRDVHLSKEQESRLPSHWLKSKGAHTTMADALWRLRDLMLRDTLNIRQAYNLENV

[9] = molecular target: T4, ATPase family AAA domain-containing protein 2 (Homo sapiens) (UniProt Q6PL18); test: Binding affinity to ATAD2 bromodomain (unknown origin) assessed as change in melting temperature at 10 uM by differential scanning fluorimetric analysis
T4 sequence (whole entry): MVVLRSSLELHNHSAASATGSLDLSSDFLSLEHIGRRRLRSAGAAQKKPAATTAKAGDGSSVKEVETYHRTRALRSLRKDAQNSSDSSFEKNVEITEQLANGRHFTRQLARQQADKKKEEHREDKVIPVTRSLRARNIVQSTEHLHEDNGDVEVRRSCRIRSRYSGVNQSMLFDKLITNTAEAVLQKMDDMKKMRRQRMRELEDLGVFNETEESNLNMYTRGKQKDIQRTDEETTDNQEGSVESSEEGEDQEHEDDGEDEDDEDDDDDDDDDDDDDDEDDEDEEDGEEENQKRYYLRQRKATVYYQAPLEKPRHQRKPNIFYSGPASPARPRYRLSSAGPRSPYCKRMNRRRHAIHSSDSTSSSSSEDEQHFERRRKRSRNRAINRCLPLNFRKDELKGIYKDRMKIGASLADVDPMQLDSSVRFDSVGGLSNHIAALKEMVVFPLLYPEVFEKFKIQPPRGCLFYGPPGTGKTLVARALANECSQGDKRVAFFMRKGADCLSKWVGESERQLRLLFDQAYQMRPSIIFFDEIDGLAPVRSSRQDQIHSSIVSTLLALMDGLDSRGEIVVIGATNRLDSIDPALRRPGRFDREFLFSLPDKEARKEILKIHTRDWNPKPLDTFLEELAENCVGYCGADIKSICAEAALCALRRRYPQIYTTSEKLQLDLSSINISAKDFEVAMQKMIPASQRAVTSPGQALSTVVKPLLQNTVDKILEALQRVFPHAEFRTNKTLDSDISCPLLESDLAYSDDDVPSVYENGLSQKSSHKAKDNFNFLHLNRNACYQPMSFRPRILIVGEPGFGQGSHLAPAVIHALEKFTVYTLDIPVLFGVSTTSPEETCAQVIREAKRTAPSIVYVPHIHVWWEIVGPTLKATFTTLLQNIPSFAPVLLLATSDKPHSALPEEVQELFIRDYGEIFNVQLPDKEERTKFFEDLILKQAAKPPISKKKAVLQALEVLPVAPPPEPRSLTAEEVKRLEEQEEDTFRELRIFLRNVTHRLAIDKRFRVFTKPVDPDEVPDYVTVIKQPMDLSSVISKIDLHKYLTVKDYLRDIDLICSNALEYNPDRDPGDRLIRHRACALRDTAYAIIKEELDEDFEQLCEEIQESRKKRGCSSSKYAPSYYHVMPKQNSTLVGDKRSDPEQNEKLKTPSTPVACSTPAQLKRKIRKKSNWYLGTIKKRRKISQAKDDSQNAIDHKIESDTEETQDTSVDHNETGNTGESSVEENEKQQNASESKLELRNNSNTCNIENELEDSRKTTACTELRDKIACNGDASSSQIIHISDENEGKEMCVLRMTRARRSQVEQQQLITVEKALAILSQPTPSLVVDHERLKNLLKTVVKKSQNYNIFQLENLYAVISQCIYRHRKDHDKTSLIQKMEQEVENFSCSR

Homo sapiens [10] = species: Homo sapiens; test: Binding affinity to CBP (unknown origin) assessed as change in melting temperature at 10 uM by differential scanning fluorimetric analysis
[11] = molecular target: T1, Bromodomain-containing protein 4; test: Binding affinity to BRD4 bromodomain-2 (unknown origin) assessed as change in melting temperature at 10 uM by differential scanning fluorimetric analysis
Homo sapiens [12] = species: Homo sapiens; test: Selectivity ratio of IC50 for BRD4 bromodomain-1 (unknown origin) to IC50 for CBP (unknown origin)

Compound | IC50 ([1]; read-out: pIC50 (converted)) [µM] | pIC50 [2] | further results
Cc1noc(C)c1-c1ccc2c(c1)C(OCc1ccccc1)CC2 (racemic) | 31.6 | – | –
Cc1noc(C)c1-c1ccc2ncn(Cc3cccc(F)c3)c2c1 | 0.631 | 4.9 | –
Cc1noc(C)c1-c1ccc2ncn(Cc3cccc(C(=O)N(C)C)c3)c2c1 | 0.631 | 5.2 | –
Cc1noc(C)c1-c1ccc2c(c1)nc(C)n2Cc1ccc(O)cc1 | 2 | 5.1 | –
Cc1noc(C)c1-c1ccc2c(c1)ncn2Cc1ccccc1[N+](=O)[O-] | 12.6 | 4.8 | –
Cc1noc(C)c1-c1ccc2c(c1)C(OCCCN1CCNCC1)CC2 (racemic) | 3.98 | – | –
Cc1noc(C)c1-c1ccc2ncn(Cc3ccccc3Cl)c2c1 | 0.794 | < 5 | –
COc1ccc(Cn2cnc3ccc(-c4c(C)noc4C)cc32)cc1 | 0.794 | < 5 | –
Cc1noc(C)c1-c1ccc2ncn(Cc3ccc(C#N)cc3)c2c1 | 0.2 | < 4 | ΔTm [3]: -0.2 °C; ΔTm [4]: 0 °C; ΔTm [5]: -0.4 °C; ΔTm [6]: -0.2 °C; ΔTm [7]: 0.1 °C; ΔTm [8]: -0.1 °C; ΔTm [9]: -0.1 °C; ΔTm (Homo sapiens [10]): 1.1 °C; ΔTm [11]: 3.2 °C; IC50 ([1]; read-out: IC50): 0.18 µM; Ratio IC50 (Homo sapiens [12]): 100
Cc1noc(C)c1-c1ccc2ncn(Cc3ccccc3C#N)c2c1 | 1 | 5.9 | –
Cc1noc(C)c1-c1ccc2c(c1)C(OCCCN1CCOCC1)CC2 (racemic) | 6.31 | – | –
Cc1noc(C)c1-c1ccc2c(c1)ncn2Cc1cccc(Br)c1 | 1.58 | 5.6 | –
Cc1noc(C)c1-c1ccc2c(c1)C(O)(c1ccccc1)CC2 (racemic) | 1.26 | 4.7 | –
Cc1noc(C)c1-c1ccc2c(c1)C(OCc1ccc3ccccc3n1)CC2 (racemic) | 20 | – | –
Cc1noc(C)c1-c1ccc2cc[nH]c2c1 | 20 | < 5 | –
Cc1noc(C)c1-c1ccc2ncn(Cc3cccc(Cl)c3)c2c1 | 1.26 | 4.7 | –
Cc1noc(C)c1-c1ccc2ncn(Cc3cccc(Br)c3)c2c1 | 1 | < 5 | –
Cc1noc(C)c1-c1ccc2c(c1)ncn2Cc1ccc(Cl)c(Cl)c1 | 10 | 5.9 | –
COc1ccc(Cn2c(C)nc3ccc(-c4c(C)noc4C)cc32)cc1 | 1.58 | 4.6 | –
Cc1noc(C)c1-c1ccc2c(c1)C(OCCCN1CCCCC1)CC2 (racemic) | 6.31 | – | –
Cc1noc(C)c1-c1ccc2ncn(Cc3ccc(C(=O)N(C)C)cc3)c2c1 | 2 | 5.2 | –
Cc1noc(C)c1-c1ccc2nc[nH]c2c1 | 6.31 | 5.4 | –
Cc1noc(C)c1-c1ccc2ncn(Cc3ccc(Cl)c(Cl)c3)c2c1 | 3.98 | < 4 | –
Cc1noc(C)c1-c1ccc2c(c1)ncn2Cc1ccc(Cl)cc1 | 2.51 | 5.7 | –
Cc1noc(C)c1-c1ccc2ncn(Cc3ccccc3[N+](=O)[O-])c2c1 | 0.631 | < 4 | –
Cc1noc(C)c1-c1ccc2c(c1)C(OCCCN1CCCC1)CC2 (racemic) | 6.31 | – | –
COC(=O)c1ccc(Cn2cnc3ccc(-c4c(C)noc4C)cc32)cc1 | 1.26 | < 4 | –
Cc1noc(C)c1-c1ccc2c(c1)C(=O)CC2 | 63.1 | < 4.6 | –
